Measured values reported in ChEMBL document CHEMBL3045800 (2003).

Legend:
Oryza sativa = type: functional,  cv. Nipponbare
Pyricularia oryzae [1] = test: Inhibition of mycelial growth in Magnaporthe oryzae at 400 ppm after 7 days by hyphal growth inhibition assay; type: functional; details: 168 h, read-out: INH
Pyricularia oryzae [2] = test: Inhibition of spore germination in Magnaporthe oryzae at 80 ppm after 48 hr; type: functional; details: read-out: INH
Pyricularia oryzae [3] = test: Inhibition of mycelial growth in Magnaporthe oryzae at 200 ppm after 7 days by hyphal growth inhibition assay; type: functional; details: 168 h, read-out: INH
Pyricularia oryzae [4] = test: Inhibition of spore germination in Magnaporthe oryzae at 40 ppm after 48 hr; type: functional; details: read-out: INH
Pyricularia oryzae [5] = test: Inhibition of appressorium formation in Magnaporthe oryzae at 40 ppm after 48 hr by microscopy based cellulose membrane method; type: functional; details: read-out: INH
Pyricularia oryzae [6] = test: Inhibition of appressorium formation in Magnaporthe oryzae at 100 ppm after 48 hr by microscopy based cellulose membrane method; type: functional; details: read-out: INH
Pyricularia oryzae [7] = test: Inhibition of mycelial growth in Magnaporthe oryzae at 800 ppm after 7 days by hyphal growth inhibition assay; type: functional; details: 168 h, read-out: INH
Pyricularia oryzae [8] = test: Inhibition of appressorium formation in Magnaporthe oryzae at 20 ppm after 48 hr by microscopy based cellulose membrane method; type: functional; details: read-out: INH
Pyricularia oryzae [9] = test: Inhibition of spore germination in Magnaporthe oryzae at 100 ppm after 48 hr; type: functional; details: read-out: INH
Pyricularia oryzae [10] = test: Inhibition of spore germination in Magnaporthe oryzae at 20 ppm after 48 hr; type: functional; details: read-out: INH
Pyricularia oryzae [11] = test: Inhibition of mycelial growth in Magnaporthe oryzae at 1000 ppm after 7 days by hyphal growth inhibition assay; type: functional; details: 168 h, read-out: INH
Pyricularia oryzae [12] = test: Inhibition of appressorium formation in Magnaporthe oryzae at 80 ppm after 48 hr by microscopy based cellulose membrane method; type: functional; details: read-out: INH

For `Cn1ncc(C(=O)O)c1Cl`, the ED80 (Oryza sativa) was over 5 mg.
`Cn1cc(C(=O)O)c(Cl)n1` was tested, and the ED80 (Oryza sativa) was 0.5 mg.
With `COC(=O)Nc1cc(Cl)nn1C` the ED80 (Oryza sativa) was over 5 mg.
`Cn1nc(Cl)cc1CC(=O)O` gave an ED80 (Oryza sativa) of 5 mg.
With `CC(=O)c1cc(Cl)nn1C` the ED80 (Oryza sativa) was 5 mg.
For `Cn1nc(Cl)cc1C=O`, the ED80 (Oryza sativa) was over 5 mg.
`COC(=O)c1cc(Cl)nn1C` showed an ED80 (Oryza sativa) of 0.05 mg.
`Cn1nc(Br)cc1C(=O)O` gave an ED80 (Oryza sativa) of 0.05 mg.
Molecule `Cc1cc(C(=O)O)n(C)n1` has an ED80 (Oryza sativa) of 0.5 mg.
Molecule `Cn1nccc1C(=O)O` has an ED80 (Oryza sativa) of over 5 mg.
Molecule `Cn1nc(Cl)cc1C(=O)O` [3-CHLORO-1-METHYL-1H-PYRAZOLE-5-CARBOXYLIC ACID] has an inhibition at 400 ppm (Pyricularia oryzae [1]) of 0%, an inhibition at 80 ppm (Pyricularia oryzae [2]) of 0% and an inhibition at 200 ppm (Pyricularia oryzae [3]) of 0%. It also gave an inhibition at 40 ppm (Pyricularia oryzae [4]) of 0%, an inhibition at 40 ppm (Pyricularia oryzae [5]) of 0% and an inhibition at 100 ppm (Pyricularia oryzae [6]) of 41.6%. The inhibition at 800 ppm (Pyricularia oryzae [7]) was 0%, the inhibition at 20 ppm (Pyricularia oryzae [8]) was 0% and the inhibition at 100 ppm (Pyricularia oryzae [9]) was 35.4%. For the same molecule, the ED80 (Oryza sativa) was 0.05 mg, the inhibition at 20 ppm (Pyricularia oryzae [10]) was 0% and the inhibition at 1000 ppm (Pyricularia oryzae [11]) was 47.5%. For the same molecule, the inhibition at 80 ppm (Pyricularia oryzae [12]) was 10%.
